Laboratory results taken from patent publication US5484940A, “Substituted 3-indolyl-5-pyrazolone compounds” (priority 1994, dated 1996).

Columns and labels:
[1] = tested on: human cortical neurons; assay: Inhibition of toxicity of β-amyloid peptide to human neuronal cells (alamarBlue); assay type: cell-based; details: 50 μM β-amyloid peptide, 2-3 days; on average where more than one duplicate experiment; compound concentration not stated
Experimental: (§1) The purpose of this test is to determine the effect of 3-indolyl-5-pyrazolone compounds on the toxicity of β-amyloid peptide to neuronal cells.
Primary Human Cortical Cell Culture
Primary human cortical cultures were prepared using a modification of the procedure described by Seubert, et al.^21 Following filtration through Nitex nylon screens, cortical tissue was resuspended in a trypsin/EDTA solution (0.05% trypsin+0.53 mM EDTA in HBSS; GIBCO Laboratories, Grand Island, N.Y., USA) and kept at 37° C. for 20 minutes. The trypsin was then inactivated by resuspending the cells in serum-containing medium (MEM/FBS: Modified Eagles' Medium (MEM) containing 1% glucose, 1 mM sodium pyruvate, 1 mM glutamine, and supplemented with 10% fetal bovine serum (GIBCO). Cells were then pelleted by centrifugation and resuspended in a chemically-defined medium (MEM/B27: MEM containing B27 supplement in place of FBS; GIBCO). Polyethyleneimine (PEI; Sigma Chemical Company, St. Louis, Mo., USA)-coated 6.4 mm (96-well) dishes were rinsed once with MEM/FBS, and then seeded at 0.75 to 1.25×10^5 cells per well in 0.1 mL MEM/B27. Cultures were maintained in a H2 O-saturated incubator with an atmosphere of 95% air/5% CO 2 at 37° C. The culture medium was exchanged twice weekly. Cell viability was visually assessed by phase contrast microscopy and quantified by measuring the reduction of alamarBlue™ (Alamar Biosciences, Inc., Sacramento, Calif., USA).
(§2) β-amyloid peptide stock solutions were prepared as 1 mM stocks in sterile, doubly distilled water immediately prior to addition to cultures. Rat cortical neurons were exposed to β-amyloid peptide by removing the culture medium and replacing it with DMEM/N2 (GIBCO Laboratories,Grand Island, N.Y., USA) containing 10 to 20 μM β-amyloid peptide. Human cortical neurons were exposed to test compound plus β-amyloid peptide by removing the culture medium and replacing it with MEM containing 50 μM β-amyloid peptide. Cultures were maintained for 2-3 days before neuronal survival was quantified using alamarBlue™.
(§3) The alamarBlue™ assay incorporates a fluorometric/colorimetric metabolic indicator (Alamar Biosciences, Inc. Sacramento, Calif., USA). Viable cells convert alamarBlue™ from an oxidized (non-fluorescent, blue) form to a reduced (fluorescent, red) form. Assays were preformed by replacing the culture media with a 10% alamarBlue™ solution in DMEM (rat cortical cultures) or MEM (human cortical cultures).

[2] = tested on: rat cortical neurons; assay: Inhibition of toxicity of β-amyloid peptide to rat neuronal cells (alamarBlue); assay type: cell-based; details: 10 to 20 μM β-amyloid peptide, 2-3 days; on average where more than one duplicate experiment; compound concentration not stated
Experimental: as §1
Primary rat cortical cultures were established from 18 day rat fetuses. Cortical tissue was dissociated by incubation in a trypsin/EDTA solution (0.05% trypsin+0.53 mM EDTA in HBSS; GIBCO Laboratories, Grand Island, N.Y., USA) for 20 minutes at 37° C. The trypsin was then inactivated by resuspending the cells in serum-containing medium (DMEM/FBS): Dulbecco's Modified Eagles' Medium (DMEM) containing 4.5 g/L glucose, 1 mM sodium pyruvate, 1 mM glutamine, 100 Units/mL penicillin, 100 μg/mL streptomycin, and supplemented with 10% heat-inactivated fetal bovine serum (GIBCO Laboratories, Grand Island, N.Y., USA). Cells were then pelleted by centrifugation and resuspended in a chemically-defined medium (DMEM/B27: DMEM containing B27 supplement; GIBCO Laboratories, Grand Island, N.Y., USA) in place of FBS. Polyethyleneimine (PEI; Sigma Chemical Company, St. Louis, Mo., USA)-coated 6.4 mm (96-well) dishes were timed once with DMEM/FBS, and then seeded at 0.75 to 1.25×10^5 cells per well in 0.1 mL DMEM/B27. Cultures were maintained in a H2 O-saturated incubator with an atmosphere of 90% air/10% CO2 at 37° C. Cell viability was visually assessed by phase contrast microscopy and quantified by measuring the reduction of alamarBlue™ (Alamar biosciences, Inc., Sacramento, Calif., USA) as described below. Serum replacement with B27 supplement yields nearly pure neuronal cultures as judged by immunocytochemistry for glial fibrillary acidic protein and neuron-specific enolase (Brewer, et al.^20)
as §2, §3

[3] = tested on: β-amyloid peptide production; assay: Cellular screen for inhibitors of β-amyloid production (ELISA, 293 751 SWE cells); assay type: cell-based, human; details: 2 h pretreatment + 2 h, normalized for cytotoxicity (MTT), concentration not given
Experimental: (§4) This screening assay employed cells (K293=human kidney cell line) which were stably transfected with the gene for amyloid precursor protein 751 (APP751) containing the double mutation Lys651 Met652 to Asn651 Leu652 (APP751 numbering) in the manner described in International Patent Application Publication No. 94/10569^1 and Citron et al.^16. This mutation is commonly called the Swedish mutation and the cells, designated as "293 751 SWE", were plated in Coming 96-well plates at 1.5-2.5×10^4 cells per well in Dulbecco's minimal essential media plus 10% fetal bovine serum. Cell number is important in order to achieve β-amyloid ELISA results within the linear range of the assay (~0.2 to 2.5 ng per mL).
Following overnight incubation at 37° C. in an incubator equilibrated with 10% carbon dioxide, media were removed and replaced with 200 μL of a substituted 3-indolyl-5-pyrazolone (drug) containing media per well for a two hour pretreatment period and cells were incubated as above.
At the end of the pretreatment period, the media were again removed and replaced with fresh drag containing media as above and cells were incubated for an additional two hours. After treatment, plates were centrifuged in a Beckman GPR at 1200 rpm for five minutes at room temperature to pellet cellular debris from the conditioned media. From each well, 100 μL of conditioned media or appropriate dilutions thereof were transferred into an ELISA plate precoated with antibody 266 against amino acids 13-28 of β-amyloid peptide as described in International Patent Application Publication No. 94/10569^1 and stored at 4° C. overnight. An ELISA assay employing labelled antibody 6C6 against amino acids 1-16 of β-amyloid peptide was run the next day to measure the amount of β-amyloid peptide produced.
The results of the β-amyloid peptide ELISA were fit to a standard curve and expressed as ng/mL β-amyloid peptide. […] All results are the mean and standard deviation of at least six replicate assays.

[4] = tested on: 293 751 SWE cells; assay: Cytotoxicity (MTT) in 293 751 SWE cells; assay type: cell-based, human; details: concentration not given
Experimental: as §4
Cytotoxic effects of the compounds were measured by a modification of the method of Hansen, et al.^17. To the cells remaining in the tissue culture plate was added 25 μL of a 3,(4,5-dimethylthiazol-2-yl)2,5-diphenyltetrazolium bromide (MTT) stock solution (5 mg/mL) to a final concentration of 1 mg/mL. Cells were incubated at 37° C. for one hour, and cellular activity was stopped by the addition of an equal volume of MTT lysis buffer (20% w/v sodium dodecylsulfate in 50% dimethylformamide, pH 4.7). Complete extraction was achieved by overnight shaking at room temperature. The difference in the OD562nm and the OD650nm was measured in a Molecular Device's UVmax microplate reader as an indicator of the cellular viability.

Compound | inhibition of the toxicity of β-amyloid peptide to human neuronal cells [1] | inhibition of the toxicity of β-amyloid peptide to rat neuronal cells [2] | reduction of β-amyloid peptide production as compared to control [3] | cytotoxic effect on the 293 751 SWE cells [4]
O=C1CC(Cc2cn(C(=O)c3ccc(Cl)cc3)c3ccccc23)=NN1 [A, 3-[1-(4-chlorobenzoyl)-3-indolylmethyl]-5-pyrazolone] | at least 25% | at least 10% | – | –
O=C1CC(CCc2c[nH]c3ccccc23)=NN1C1CCCCC1 [D, 3-[3-indolylethyl]-1-cyclohexyl-5-pyrazolone] | at least 25% | < 10% | – | –
COc1ccc2c(c1)c(CC1=NN(c3ccccc3C)C(=O)C1)c(C)n2C(=O)c1ccc(Cl)cc1 [E] | at least 25% | at least 10% | – | –
COc1ccc2c(c1)c(CC1=NN(c3ccccc3)C(=O)C1)c(C)n2C(=O)c1ccc(Cl)cc1 [Example 8, 3-[1-(4-chlorobenzoyl)-5-methoxy-2-methyl-3-indolylmethyl]-1-phenyl-5-pyrazolone] | at least 25% | < 10% | at least 20% | did not have a significant cytotoxic effect
COc1ccc2c(c1)c(CC1=NNC(=O)C1)c(C)n2C(=O)c1ccc(Cl)cc1 [Example 15, 3-[1-(4-chlorobenzoyl)-5-methoxy-2-methyl-3-indolylmethyl]-5-pyrazolone] | at least 25% | < 10% | < 20% | –
O=C1CC(Cc2c[nH]c3ccccc23)=NN1C1CCCCC1 [Example 18, 3-(3-indolylmethyl)-1-cyclohexyl-5-pyrazolone] | at least 25% | < 10% | – | –
COc1ccc(N2N=C(Cc3c(C)n(C(=O)c4ccc(Cl)cc4)c4ccc(OC)cc34)CC2=O)cc1 [Example 23, 3-[1-(4-chlorobenzoyl)-5-methoxy-2-methyl-3-indolylmethyl]-1-(4-methoxyphenyl)-5-pyrazolone] | at least 25% | < 10% | at least 20% | did not have a significant cytotoxic effect
COc1cccc(N2N=C(Cc3c(C)n(C(=O)c4ccc(Cl)cc4)c4ccc(OC)cc34)CC2=O)c1 [Example 24, 3-[1-(4-chlorobenzoyl)-5-methoxy-2-methyl-3-indolylmethyl]-1-(3-methoxyphenyl)-5-pyrazolone] | at least 25% | at least 10% | at least 20% | did not have a significant cytotoxic effect
COc1ccc2c(c1)c(CC1=NN(c3cccc(Cl)c3)C(=O)C1)c(C)n2C(=O)c1ccc(Cl)cc1 [Example 26, 3-[1-(4-chlorobenzoyl)-5-methoxy-2-methyl-3-indolylmethyl]-1-(3-chlorophenyl)-5-pyrazolone] | at least 25% | at least 10% | at least 20% | did not have a significant cytotoxic effect
COc1ccc2c(c1)c(CC1=NN(c3cc(Cl)cc(Cl)c3)C(=O)C1)c(C)n2C(=O)c1ccc(Cl)cc1 [Example 27, 3-[1-(4-chlorobenzoyl)-5-methoxy-2-methyl-3-indolylmethyl]-1-(3,5-dichlorophenyl)-5-pyrazolone] | at least 25% | at least 10% | at least 20% | did not have a significant cytotoxic effect
COc1ccc2c(c1)c(CC1=NN(c3cccc([N+](=O)[O-])c3)C(=O)C1)c(C)n2C(=O)c1ccc(Cl)cc1 [Example 30, 3-[1-(4-chlorobenzoyl)-5-methoxy-2-methyl-3-indolylmethyl]-1-(3-nitrophenyl)-5-pyrazolone] | at least 25% | < 10% | at least 20% | did not have a significant cytotoxic effect
COc1ccc2c(c1)c(CC1=NN(c3ccc(C)cc3)C(=O)C1)c(C)n2C(=O)c1ccc(Cl)cc1 [Example 34, 3-[1-(4-chlorobenzoyl)-5-methoxy-2-methyl-3-indolylmethyl]-1-(4-methylphenyl)-5-pyrazolone] | at least 25% | at least 10% | at least 20% | did not have a significant cytotoxic effect
